# Measurements as given in article PMC2551328 (Biochemistry, 2008).
# Several values for one entry are separate records, joined by “and”; a condition that tells them apart may be missing. Equal values may be shown once. Read-outs that look alike come from different tables or passages of the source.
# Experiments:
# M.tb PGDH (Native) [1] = target: T1, M.tb PGDH (Native) (Mycobacterium tuberculosis, UniProt P9WNX3); assay type: biochemical
# T1 sequence (P9WNX3 1-528): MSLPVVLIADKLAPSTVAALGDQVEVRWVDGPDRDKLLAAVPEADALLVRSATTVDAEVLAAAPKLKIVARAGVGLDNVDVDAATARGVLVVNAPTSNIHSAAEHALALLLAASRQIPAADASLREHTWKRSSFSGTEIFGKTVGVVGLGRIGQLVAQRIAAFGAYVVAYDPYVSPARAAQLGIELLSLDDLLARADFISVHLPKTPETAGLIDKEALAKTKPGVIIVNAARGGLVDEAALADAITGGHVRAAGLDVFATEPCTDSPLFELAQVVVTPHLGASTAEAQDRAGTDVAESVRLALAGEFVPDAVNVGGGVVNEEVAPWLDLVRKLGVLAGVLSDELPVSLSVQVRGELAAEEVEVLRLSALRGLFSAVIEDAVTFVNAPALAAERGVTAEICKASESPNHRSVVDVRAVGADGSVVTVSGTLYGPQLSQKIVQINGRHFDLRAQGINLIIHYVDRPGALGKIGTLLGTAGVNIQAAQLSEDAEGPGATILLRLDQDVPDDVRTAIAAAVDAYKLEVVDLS
# M.tb PGDH = target: T2, M.tb PGDH (Mycobacterium tuberculosis, UniProt P9WNX3); assay type: binding
# T2 sequence (P9WNX3 1-528): T1 sequence (P9WNX3 1-528)
# PGDH from B. subtilis = details: read-out: IC50 (serine); cited from earlier work
# rat liver PGDH = details: cited from earlier work
# PGDH from C. glutamicum = details: read-out: IC50 (serine); cited from earlier work
# E. coli PGDH [2] = details: read-out: IC50 for L-serine; cited from earlier work
# Human PGDH = Human PGDH (Homo sapiens, UniProt O43175); assay: Serine effect on human PGDH; assay type: biochemical; details: unpublished result
# chicken liver PGDH = details: cited from earlier work
# E. coli PGDH [3] = details: read-out: Kd (NADH), without cooperativity; cited from earlier work
# M.tb PGDH (Native) [4] = target: T1, M.tb PGDH (Native); details: read-out: Km (NADH), homotropic positive cooperativity; cited from earlier work
# Chain of Human PGDH (O43175 whole entry): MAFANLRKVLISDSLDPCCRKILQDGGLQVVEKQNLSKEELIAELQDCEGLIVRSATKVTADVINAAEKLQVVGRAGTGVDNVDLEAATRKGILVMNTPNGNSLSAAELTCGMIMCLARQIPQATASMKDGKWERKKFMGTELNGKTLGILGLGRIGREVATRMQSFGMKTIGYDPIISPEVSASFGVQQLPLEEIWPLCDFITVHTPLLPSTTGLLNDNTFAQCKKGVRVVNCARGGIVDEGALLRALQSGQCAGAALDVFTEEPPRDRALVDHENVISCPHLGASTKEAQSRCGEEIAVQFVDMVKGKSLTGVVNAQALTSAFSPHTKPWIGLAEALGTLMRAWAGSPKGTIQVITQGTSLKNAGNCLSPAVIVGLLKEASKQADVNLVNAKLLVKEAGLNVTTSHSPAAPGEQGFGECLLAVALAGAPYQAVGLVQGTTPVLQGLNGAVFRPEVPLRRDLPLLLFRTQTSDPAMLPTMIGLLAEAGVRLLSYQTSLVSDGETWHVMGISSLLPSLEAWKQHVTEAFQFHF
compound,measurement,setting,value
"O=C(O)C(=O)COP(=O)(O)O [HPAP, hydroxypyruvic acid phosphate]",Ki,M.tb PGDH (Native) [1],950 ± 120 µM
same,kcat,M.tb PGDH (Native) [1],2461 ± 281 s⁻¹
same,Km,M.tb PGDH (Native) [1]; pH 7.5,170 ± 50 µM
same,HPAP binding transient (enzyme fluorescence increase),M.tb PGDH,rapid binding
"N[C@@H](CO)C(=O)O [L-serine, reference compound]",IC50,PGDH from B. subtilis,~600 µM
same,effect of serine on enzyme activity,rat liver PGDH,no effect
same,IC50,PGDH from C. glutamicum,~10000 µM
same,effect of serine on enzyme activity,Human PGDH,not inhibited
same,effect of serine on enzyme activity,Human PGDH; listed as serine,not affected
same,effect of serine on enzyme activity,chicken liver PGDH,no effect
NC(=O)C1=CN([C@@H]2O[C@H](COP(=O)(O)OP(=O)(O)OC[C@H]3O[C@@H](n4cnc5c(N)ncnc54)[C@H](O)[C@@H]3O)[C@@H](O)[C@H]2O)C=CC1 [NADH],Kd,E. coli PGDH [3],< 0.5 µM
same,Km,M.tb PGDH (Native) [4],~50 µM
same,NADH concentration needed to produce a rate equal to the kcat,M.tb PGDH,at least 65 mM
same,on-rate for NADH binding,M.tb PGDH,occurs within the dead-time of the instrument
same,on-rates for NADH binding,M.tb PGDH,zero
same,off-rate of NADH binding,M.tb PGDH; pH 7.5,0.34 sec ^−1 and 0.21 sec ^−1
same,Kd,M.tb PGDH; read-out: Kd for NADH binding,15 to 30 µM
"O=C(O)C(O)COP(=O)(O)O [phosphoglyceric acid, D-3-phosphoglyceric acid]",effect on the rate of NADH binding,M.tb PGDH,did not significantly enhance
